Five substances from patent publication US20200384079A1, “Compositions of Fibroblast Growth Factor LIgands and Methods of Treating Patients Undergoing Ischemia-Reperfusion Therapy” (University of Cincinnati, priority 2017, published 2020) can be followed below.

Series [1] addresses FGFR3c ectodomain (extracellular ligand binding domain of FGFR3c) (UniProt P22607). Description: ITC; FGF1 injected into FGFR3c ectodomain in the cell. In general terms: ITC needs no label: the signal is the heat of the interaction.
Series [2] has the same target. Description: ITC; FGF1^ΔHBS injected into FGFR3c ectodomain in the cell.
The subject of series [3] is in vivo rat model of myocardial infarction. Description: In vivo rat ischemia-reperfusion model, infarct size (TTC). Further details: species or system Sprague Dawley rats. The conditions noted are these: for effect on infarct size / cardioprotection (in words): FGF given at reperfusion with heparin co-therapy; for reduction in infarct size compared to saline/vehicle control: given i.v. at reperfusion alone (FGF 10 μg/kg; heparin 12 U/kg/hr); for effect on infarct size (in words): given at reperfusion, no heparin co-therapy. As for the experimental part: CVR-2016-799R1 signaling and the other two sets were to evaluate the pharmacokinetic properties of native FGF1 and modified FGF1 (FGF1^ΔHBS). The first set of experiments was for the ischemia/reperfusion study in which animals were divided into six groups as follows: (1) saline group: saline treatment given intravenously for 10 minutes immediately upon reperfusion, (2) heparin group: heparin, 60 U/kg intravenous (i.v.) bolus, given immediately at reperfusion+12 U/kg/hr i.v. infusion for 120 minutes of reperfusion, (3) FGF1 group: FGF1, 10 μg/kg i.v. infusion, given for 10 minutes immediately at reperfusion, (4) FGF1+heparin: heparin, 60 U/kg bolus, given immediately upon reperfusion followed by FGF1, 10 μg/kg i.v. infusion, given for 10 minutes and 12 U/kg/hr i.v. infusion given for 110 minutes of reperfusion, (5) modified FGF1 (FGF1^ΔHBS) group: FGF1^ΔHBS, 10 μg/kg i.v. infusion, given for 10 minutes, or (6) FGF1^ΔHBS+heparin: heparin, 60 U/kg bolus, given immediately at reperfusion followed by FGF1^ΔHBS, 10 μg/kg i.v. infusion, given for 10 minutes and 12 U/kg/hr i.v. infusion for 110 minutes of reperfusion. All rats were subjected to 30 minutes of regional ischemia and 120 minutes of reperfusion. Drugs were administered at the onset of reperfusion via the jugular vein (FIG. 2A). […] A total of ninety-six rats was completed for the I/R study. Sample size for each group ranged from 9-16 depending on the power analysis. A total of thirty-five rats were excluded from the study based on the lack of cyanosis of the heart or typical elevation of the ST segment in the electrocardiogram during ischemia, and death from malignant arrhythmia. For the biodistribution or FGF1 signaling study, rats were randomly divided into six groups as described above (FIG. 2B). Following drug treatment (immediately following 15 minutes of treatment or 105 minutes post-treatment at the point which mimics the length of time of reperfusion), solid organs and blood (see sections “Tissue collection for exogenous FGF1 biodistribution” and “Cardiac preparation to detect the activation of FGF1 downstream molecules”) were collected. A total of 33 rats were used for biodistribution and FGF1 signaling studies, and 3 rats were excluded due to anesthetic overdose. Also, a total of 8 plasma samples were excluded because of hemolysis. For elimination half-life of native FGF1 and FGF1^ΔHBS, 12 rats were randomly divided into two groups and treated intraperitoneally with either FGF1 form as described in the section “Pharmacokinetic evaluation of exogenous FGF1 or FGF1^ΔHBS ”.
The in vivo I/R model was established by ligating and loosening the left anterior CVR-2016-799R1 descending artery (LAD) previously described by our laboratory. In brief, rats were anesthetized with thiobutabarbital sodium salt hydrate, Inactin® hydrate (100 mg/kg, i.p., Sigma-Aldrich), and intubated and artificially ventilated via a rodent respirator (respiratory rate: 75 strokes/minute; tidal volume: 3 mL; Model 683, Harvard, USA). The heart was exposed through a left thoracotomy and pericardiotomy, and a 6-0 silk suture was placed around the left anterior descending (LAD) coronary artery. After equilibration for 15 minutes, hearts were subjected to 30 minutes of ischemia by ligating the LAD via a snare occluder and reperfusion occurred for 120 minute via loosening the snare occluder. The appearance of cyanosis of the heart and significant ST-segment elevation in the electrocardiogram were used to verify successful ligation.
At the end of the ischemia-reperfusion injury study, the LAD was re-occluded with the suture used previously for the establishment of ischemia. 5% Evans blue dye solution was given via the jugular vein to define the area-at-risk (AAR). Then, the heart was arrested in diastole with 1 mL of 15% potassium chloride, and the animal was euthanized with an anesthetic overdose followed by a bilateral pneumothorax for removal of the heart. […]

For series [4] the test system is unchanged. The following applies: rat; for post-ischemic cardiac function (in words): given at reperfusion, no heparin co-therapy.
Series [5] is described as follows: Blood clotting time (tail nick). It is filed as in vivo, rat. The conditions noted are these: for Clotting time: 15 mins post treatment, single agent. As for the experimental part:
In sets of experiments, blood clotting time was detected at baseline and 15 minutes after drug treatment. In brief, a nick 1-2 mm depth was made at 5 cm and 3 cm of the proximal tail for baseline and post-drug blood clotting time, respectively; the tail nick was blotted with 4×4 gauze every 15 seconds until bleeding totally stopped, and blood clotting time was recorded from the onset of bleeding until it stopped.
Heparan sulfate proteoglycans or heparin regulates the bioavailability of FGFs. In order to develop a “cardioprotective” FGF as a therapeutic against ischemic heart disease, it was necessary to elucidate the efficacy of these cardiac FGFs in the presence of heparin treatment. Therefore, native rhFGFs (FGF 1, 2, 4, or 5) or vehicle are infused intravenously (at dose indicated above) in conjunction with unfractionated (12 units/kg/hr, i.v.) or low molecular weight heparin (enoxaparin 1 mg·kg, s.c.) during the first 15 minutes of reperfusion (FIG. 12A), and post-ischemic recovery of cardiac function and the degree of myocardial infarction is assessed. […] Unfractionated or low molecular weight heparin is administered alone during early reperfusion to elucidate the cardioprotective effects of heparins against IR injury. Whether FGF administration alters heparin activity is evaluated. To assess this potential interaction, activated clotting time (ACT) is assessed in vehicle-treated or FGF-treated groups in the absence or presence of heparin co-administration. Baseline and 15 minute post-drug treatment ACT is determined. It has been established that a heparin response occurs within 1 minute after an intravenous dose in humans and that no more time is required to achieve a predicted ACT.

Series [6] has as its system wildtype mouse hearts. Description: Ex vivo model, low-flow ischemia and reperfusion. The conditions noted are these: treatment at reperfusion, mouse hearts. The source says: FIGS. 12A-12B. […] Left bar is vehicle-treated and right bar is FGF2-treated wildtype mouse hearts.
Series [7] deals with trypsin. Description: Susceptibility to proteolytic degradation by trypsin (fluorescence emission). It is filed as in vitro ADME. As for the experimental part: Ligand bioavailability (i.e., pharmacokinetic mechanism) can be a significant pharmacological limitation for therapeutic applicability. […] Susceptibility to protease action of FGF1^ΔTS was determined by monitoring changes in fluorescence emission during degradation by trypsin, FGF1^ΔTS (20-fold increase) and FGF2 (7-fold increase) were more resistant to proteolytic degradation than the native FGF1. It remained to be elucidated as to whether these pharmacokinetic mechanisms I.e., bioavailability and/or half-life) were enhanced in vivo as well. Therefore, detection of the bioavailability and half-life of native and thermally stable mutated ligands (FGF^ΔTS) are carried out as follows: […]

The conditions of series [8]: rat, i.v.
The test system of series [9] is ERK1/2. Description: ERK1/2 activation (phosphorylation) in left ventricle, immunoblot. The series is classed as in vivo, rat. The following applies: immediately post-treatment, no FGF+heparin co-treatment. As for the experimental part:
Hearts from rats treated with saline, native FGF1 or FGF1^ΔHBS in the presence or absence of heparin were collected immediately after administration and at 120 minutes post-treatment for evaluation of downstream signaling. One-half of each snap-frozen heart was powdered and homogenized in protein extraction buffer as previously described by our laboratory. For FGFR1, 150 μg of total protein were loaded onto a 8% SDS-PAGE gel, for ERK1/2 activation, 20 μg of whole cell protein homogenate was loaded onto a 15% SDS-PAGE gel, and for PKCα and PKCδ, […] of whole cell protein homogenate was loaded onto a 10% SDS-PAGE gel and then transferred to nitrocellulose membrane. 0.1% Ponceau S in 5% acetic acid was used to examine the transfer efficiency and loading equality as described previously 43. Membranes were blocked with 5% dry milk and then incubated with primary antibody against phospho-FGFR1 (Y-654, 1:500, Cell Signaling), phospho-ERK1/2 (1:1000, Cell Signaling) or phospho-PKCα (1:500, Santa Cruz) or phospho-PKCδ (1:500, Santa Cruz) followed by incubation with HRP-conjugated secondary goat anti-rabbit antibody (1:3000, Santa Cruz Biotechnology). Membranes were stripped and reprobed with antibodies against total FGFR1 (1:500, Cell Signaling), total ERK (1:1000, BD Transduction Labs) or total PKCα (1:500, Santa Cruz) or PKCδ (1:500, Santa Cruz). Bound antibodies were visualized by ECL system. Activation is indicated as a ratio of phosphorylated protein/total protein. β-actin (1:1000, Cell Signaling) was also used as a loading control.
Construction of his-tagged native and heparin-binding modified rhFGFs as well as their expression and purification is performed as previously described using his-tagged expression vectors and nickel-nitrilotriacetic acid resin columns. […] His-tagged FGFs are detected in solid organs by ELISA (FIG. 14) both for FGF and histidine (data not shown), and immunoprecipitation (IP) followed by immunoblot and in plasma by ELISA as described previously. His-tags are widely used because they are small and rarely interfere with function, activity, or structure of target proteins. […] There is no observed difference in total ERK or FGFR1 expression between the treatment groups.
(A western blot detects proteins with antibodies after separation by electrophoresis.)

Where [10] appears, read: rat, 30 min ischemia/120 min reperfusion, given i.v. at reperfusion alone (FGF 10 μg/kg; heparin 60 U/kg bolus + 12 U/kg/hr).

pKd: −log10 of the molar value. “Also recorded” adds a separate entry of the source. Where two headings read alike, the source gives them in different places.

One may read the pKd as −log10 of the Kd, conventionally taken in molar units. Read a low pKd as a high Kd. Take “native FGF1 (recombinant human fibroblast growth factor 1) (from UniProt P05230 16-155) (ligand)”: the pKd in series [1] was 6.15.

As for “FGF1^ΔHBS (FGF1 carrying the K127D/K128Q/K133V triple mutation in its HS-binding site) (from UniProt P05230 1-155) (ligand)”, in [2], the pKd was 6.36.

As to “FGF2: native recombinant human fibroblast growth factor 2”, the figures for the “infarct size (% infarct, percentage of area-at-risk)” value in series [3] (as E6 but FGF 10 μg/kg i.v. in the presence of heparin co-administration) and in series [3] (setting [10]) were 46% and 26%, respectively. The “effect on infarct size / cardioprotection (in words)” value in [3] (rat) was “significantly inhibited FGF2's reduction in infarct size”; in series [3] (rat, listed as rhFGF2) it was “significantly inhibited rhFGF2-induced cardioprotection against MI”. Further, the “reduction in infarct size compared to saline/vehicle control” value in [3] (rat) came to 57%; in [3] (rat, listed as RhFGF2), 70%. Also, in [4] (FGF2 at reperfusion), the “recovery of left ventricular (LV) developed pressure, % of baseline” value is reported as 68%. In addition, the “post-ischemic cardiac function (in words)” value in series [4] is “protects the heart from cardiac dysfunction; also recorded: improved relaxation compared to saline treatment”. Besides, the Clotting time in series [5] is 15 mins post rhFGF2 treatment: 192 +/− 120 sec (n = 5). For the same substance, in series [6], the “cardioprotection in ex vivo model (in words)” value was “protects the heart from post-ischemic cardiac dysfunction and myocardial infarction”. In series [7], the “increase in proteolytic resistance compared to native FGF1” value is recorded as 7 fold. The “tissue and plasma FGF distribution (in words)” value in series [8] (FGF with heparin co-administration) was “no longer targeted to the heart”; in series [8] (no FGF+heparin co-treatment), “increased biodistribution heart (left ventricle)”; in [8] (no FGF+heparin co-treatment, listed as native FGF2), “significantly targeted to the heart”.

For the substance “bisindolylmaleimide [GF109203X, reference compound]”, the “effect of PKC inhibitor on FGF2-induced cardioprotection (infarct size)” value in [3] (rat, 1 mg/kg i.v., with FGF2, 1 mg/kg) is recorded as “abrogates the FGF2-induced cardioprotective effects of reduced myocardial infarct size; also recorded: abolished FGF2-induced cardioprotection”.

Take Heparin sodium [reference compound]: the “infarct size (% infarct, percentage of area-at-risk)” value in series [3] (setting [10]) is listed as 46%. In series [3] (rat), the “effect on infarct size (in words)” value was “lowered infarct size but not to the degree of FGF2 treatment; also recorded: significantly reduced infarct size compared to saline” and the “reduction in infarct size compared to saline/vehicle control” value came out at 31%. Also, the “effect on infarct size (in words)” value in series [3] (rat, listed as Heparin) is “reduced infarct size somewhat, but not to the degree of FGF2 treatment”. Further, the “post-ischemic cardiac function (in words)” value in [4] is “no significant difference in post-ischemic contractility between the saline and heparin group”. Also, the Clotting time in [5] is 15 mins post-heparin treatment: 737 +/− 127 sec (n = 4). Moreover, the “blood clotting time post-treatment (in words)” value in series [5] (baseline vs 15 minutes after drug treatment) is on record as “significantly longer post-treatment than at baseline”. The “ERK1/2 activation (phosphorylation) in left ventricle (in words)” value in series [9] is on record as “not different than saline treatment”. Moreover, the “tissue and plasma FGF distribution (in words)” value in [8] (no FGF+heparin co-treatment) was “no difference in saline or heparin treatment with regard to FGF1 levels”.
